Test results as given in ChEMBL document CHEMBL3393028, “Discovery and characterization of MAPK-activated protein kinase-2 prevention of activation inhibitors” (J Med Chem, 2015).
Values after ≈ are worked out from the molar mass of the structure shown. Active and inactive are the calls of the source. The rule behind the calls is not given here.

Tests used:
[1] = target: T1, Mitogen-activated protein kinase 14 (Homo sapiens, UniProt Q16539); assay: Inhibition of human recombinant 5'-c-myc, His6-tagged p38-alpha using MSK1 as substrate assessed as inhibition of phosphorylation after 60 mins by ELISA in presence of ATP
T1 sequence (Q16539 whole entry): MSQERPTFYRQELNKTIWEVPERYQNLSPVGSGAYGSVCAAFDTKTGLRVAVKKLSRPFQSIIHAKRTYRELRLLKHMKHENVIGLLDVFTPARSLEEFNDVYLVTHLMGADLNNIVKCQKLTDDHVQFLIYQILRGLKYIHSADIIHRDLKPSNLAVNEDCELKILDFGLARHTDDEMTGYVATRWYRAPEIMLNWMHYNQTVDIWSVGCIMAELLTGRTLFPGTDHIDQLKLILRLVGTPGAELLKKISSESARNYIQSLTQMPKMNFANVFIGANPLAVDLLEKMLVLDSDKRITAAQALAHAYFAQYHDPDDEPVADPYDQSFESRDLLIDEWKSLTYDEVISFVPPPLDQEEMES

Cytochrome P450 3A4 = Cytochrome P450 3A4 (Homo sapiens, UniProt P08684); assay: Inhibition of CYP3A4 (unknown origin); format: ADME
Sequence of Cytochrome P450 3A4 (P08684 whole entry): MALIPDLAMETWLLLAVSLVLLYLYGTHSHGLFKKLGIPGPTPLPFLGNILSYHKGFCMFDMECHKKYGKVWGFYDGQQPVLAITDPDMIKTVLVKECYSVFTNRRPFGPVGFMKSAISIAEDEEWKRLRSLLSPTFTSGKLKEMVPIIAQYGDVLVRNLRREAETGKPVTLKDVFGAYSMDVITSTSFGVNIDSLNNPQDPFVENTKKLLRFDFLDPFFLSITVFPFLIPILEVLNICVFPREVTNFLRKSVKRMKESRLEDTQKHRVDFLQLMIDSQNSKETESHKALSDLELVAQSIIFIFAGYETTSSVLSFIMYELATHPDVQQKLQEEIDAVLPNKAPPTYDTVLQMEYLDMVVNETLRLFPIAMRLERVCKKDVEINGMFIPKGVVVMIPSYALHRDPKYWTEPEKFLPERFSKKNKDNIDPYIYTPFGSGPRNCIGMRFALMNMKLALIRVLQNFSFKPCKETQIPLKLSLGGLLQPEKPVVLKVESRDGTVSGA

[2] = target: T1, Mitogen-activated protein kinase 14; assay: Inhibition of human recombinant 5'-c-myc, His6-tagged p38-alpha using MK2 (46 to 400) as substrate assessed as inhibition of phosphorylation after 60 mins by ELISA in presence of ATP
[3] = target: T1, Mitogen-activated protein kinase 14; assay: Inhibition of p38-alpha (unknown origin) by p38alpha-MBP IoC assay
[4] = target: T1, Mitogen-activated protein kinase 14; assay: Inhibition of p38-alpha in human TC28 cells assessed as inhibition of IL-1-induced PGE2 production incubated for 20 mins prior to IL-1 challenge measured after 24 hrs by ELISA; format: cell-based
[5] = Intrinsic clearance in human liver microsomes; format: ADME; conditions: read-out: CLH
[6] = Fraction unbound in human plasma by equilibrium dialysis method; format: ADME, cell-free
[7] = Intrinsic clearance in rat hepatocytes assessed per 10^6 cells; format: ADME, cell-based, Hepatocyte; conditions: read-out: CLH
[8] = Fraction unbound in rat plasma by equilibrium dialysis method; format: ADME, cell-free
[9] = Thermodynamic solubility of the compound at pH 7.4; format: physicochemical; conditions: buffer, read-out: Therm_solubility
[10] = target: T1, Mitogen-activated protein kinase 14; assay: Inhibition of p38-alpha in human PBMC assessed as inhibition of LPS-induced TNF-alpha production incubated for 30 mins prior to LPS challenge measured after 7 hrs by ELISA
[11] = target: T1, Mitogen-activated protein kinase 14; assay: Displacement of 1-[7-[3-[4-(aminomethyl)-1-piperidyl]propoxy]-6-methoxy-quinazolin-4-yl]-3-(2-chloro-6-methylphenyl)urea from GST-tagged phosphorylated p38-alpha (unknown origin) by surface plasmon resonance based ISA method
[12] = target: Insulin-like growth factor 1 receptor (Homo sapiens) (UniProt P08069); conditions: 10 uM
Sequence of Insulin-like growth factor 1 receptor (Homo sapiens) (P08069 31-736 limits assumed): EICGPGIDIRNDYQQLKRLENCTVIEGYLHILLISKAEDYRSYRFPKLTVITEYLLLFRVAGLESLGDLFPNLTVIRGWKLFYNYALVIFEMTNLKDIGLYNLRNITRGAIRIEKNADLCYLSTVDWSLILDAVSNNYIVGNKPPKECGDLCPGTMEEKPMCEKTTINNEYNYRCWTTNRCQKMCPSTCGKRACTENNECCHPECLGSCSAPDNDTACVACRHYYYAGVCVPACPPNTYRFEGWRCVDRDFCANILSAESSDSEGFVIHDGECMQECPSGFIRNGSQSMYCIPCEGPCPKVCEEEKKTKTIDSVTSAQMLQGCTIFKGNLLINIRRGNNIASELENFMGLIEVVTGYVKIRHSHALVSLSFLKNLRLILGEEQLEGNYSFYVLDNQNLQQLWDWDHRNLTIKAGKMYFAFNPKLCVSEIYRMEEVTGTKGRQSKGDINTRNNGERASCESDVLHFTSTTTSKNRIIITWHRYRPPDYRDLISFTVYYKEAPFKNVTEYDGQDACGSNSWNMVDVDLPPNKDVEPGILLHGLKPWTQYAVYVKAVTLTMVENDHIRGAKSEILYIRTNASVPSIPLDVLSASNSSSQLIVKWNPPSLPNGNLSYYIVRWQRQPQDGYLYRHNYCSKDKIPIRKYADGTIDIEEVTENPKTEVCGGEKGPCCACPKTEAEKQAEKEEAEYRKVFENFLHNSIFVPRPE
Sequence of Insulin-like growth factor 1 receptor (Homo sapiens) (P08069 741-1367 limits assumed): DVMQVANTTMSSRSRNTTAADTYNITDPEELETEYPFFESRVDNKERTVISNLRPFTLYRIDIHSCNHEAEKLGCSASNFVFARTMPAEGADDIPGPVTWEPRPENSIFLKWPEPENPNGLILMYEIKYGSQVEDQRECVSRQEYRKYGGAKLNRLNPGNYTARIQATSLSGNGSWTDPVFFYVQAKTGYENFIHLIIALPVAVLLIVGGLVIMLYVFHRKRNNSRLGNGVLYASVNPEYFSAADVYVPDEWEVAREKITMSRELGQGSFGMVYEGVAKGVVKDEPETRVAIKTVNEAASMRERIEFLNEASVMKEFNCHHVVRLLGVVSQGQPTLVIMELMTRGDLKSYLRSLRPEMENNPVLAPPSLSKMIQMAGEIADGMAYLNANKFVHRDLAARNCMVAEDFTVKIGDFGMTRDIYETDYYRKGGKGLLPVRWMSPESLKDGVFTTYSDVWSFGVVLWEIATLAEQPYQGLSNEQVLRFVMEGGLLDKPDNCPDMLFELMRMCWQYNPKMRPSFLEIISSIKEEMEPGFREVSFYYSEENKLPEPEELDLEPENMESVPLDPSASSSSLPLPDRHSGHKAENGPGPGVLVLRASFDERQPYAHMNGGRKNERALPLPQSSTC
Description: Inhibition of IGF1R (unknown origin) at 10 uM

[13] = target: MAP kinase-activated protein kinase 2 (Homo sapiens) (UniProt P49137); assay: Binding affinity to phosphorylated full length 2H,15N-labeled MK2 (unknown origin) expressed in Escherichia coli by 2D-NMR analysis
Sequence of MAP kinase-activated protein kinase 2 (Homo sapiens) (P49137 whole entry, looked up): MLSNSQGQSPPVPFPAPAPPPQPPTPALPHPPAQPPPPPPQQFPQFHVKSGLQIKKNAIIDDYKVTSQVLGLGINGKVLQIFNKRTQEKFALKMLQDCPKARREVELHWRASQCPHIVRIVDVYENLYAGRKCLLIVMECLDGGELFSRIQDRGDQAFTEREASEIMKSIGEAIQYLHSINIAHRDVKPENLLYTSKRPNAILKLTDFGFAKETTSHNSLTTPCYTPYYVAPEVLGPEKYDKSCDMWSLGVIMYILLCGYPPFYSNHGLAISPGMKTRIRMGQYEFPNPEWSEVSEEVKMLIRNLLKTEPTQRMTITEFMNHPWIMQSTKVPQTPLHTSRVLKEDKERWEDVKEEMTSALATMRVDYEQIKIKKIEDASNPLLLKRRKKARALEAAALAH

[14] = target: T1, Mitogen-activated protein kinase 14; assay: Competitive inhibition of human recombinant 5'-c-myc, His6-tagged p38-alpha using MK2 (46-400) as substrate
[15] = Lipophilicity, log D of the compound at pH 7.4; format: physicochemical; conditions: buffer

Row | Compound | IC50 [1] [nM] | IC50 (Cytochrome P450 3A4) [nM] | IC50 [2] [nM] | IC50 [3] [nM] | other results
1 | N#Cc1ccccc1Oc1ccc(C(=O)NCc2cccnc2)cc1 | 15000 | > 10000 | 560 | > 10000 | IC50 [4]: 4700 nM
2 | N#Cc1ccccc1Oc1ccc(C(=O)NCc2ccncn2)cc1 | > 100000 | > 10000 | 2800 | > 10000 | microsomal CLint [5]: < 2 µL/min/mg; fraction unbound [6]: 0.27; hepatocyte CLint [7]: 23 µL/min/1e6 cells; fraction unbound [8]: 0.2; solubility thermodynamic [9]: 360 µM (≈ 119 µg/mL); IC50 [4]: 7100 nM
3 | N#Cc1ccccc1Oc1ccc(C(=O)NCc2ccncc2)cc1 | 21000 | 1000 | 600 | > 10000 | microsomal CLint [5]: < 2 µL/min/mg; fraction unbound [6]: 0.085; IC50 [10]: 5400 nM; hepatocyte CLint [7]: 28 µL/min/1e6 cells; Kd [11]: > 20000 nM; fraction unbound [8]: 0.14; inhibition [12]: 30%; solubility thermodynamic [9]: 120 µM (≈ 39.5 µg/mL); Activity [13]: inactive; Ki [14]: 290 nM; IC50 [4]: 25000 nM
4 | CCCc1c(C(=O)Nc2cc(C(=O)O)ccc2C)cnn1-c1ccccc1 | 4200 | – | 86 | > 10000 | IC50 [10]: 21000 nM
5 | Cc1ccccc1Oc1ccc(C(=O)NCc2ccncc2)cc1 | 5400 | – | 2000 | > 10000 | –
6 | CCCc1c(C(=O)Nc2cc(F)ccc2C)cnn1-c1ccccc1 | 2500 | – | 110 | > 10000 | –
7 | O=C(NCc1ccncc1)c1ccc(Oc2ccccc2Cl)cc1 | 1700 | – | 1700 | > 10000 | –
8 | CCCc1c(C(=O)Nc2cc(OCc3ccccc3)ccc2C)cnn1-c1ccccc1 | > 100000 | – | > 100000 | > 10000 | –
9 | CCCc1c(C(=O)Nc2cc(S(=O)(=O)N(C)C)ccc2C)cnn1-c1ccc(Cl)cc1 | 20000 | – | 390 | > 10000 | –
10 | CCCc1c(C(=O)Nc2cc(S(=O)(=O)N(C)C)ccc2C)cnn1CC(C)C | 5400 | – | 76 | > 10000 | –
11 | CCCc1c(C(=O)Nc2cc(O)ccc2C)cnn1-c1ccccc1 | < 46 | – | < 46 | > 10000 | –
12 | N#Cc1ccccc1Oc1ccc(C(=O)NCc2ccccc2)cc1 | > 100000 | > 10000 | 450 | > 10000 | IC50 [4]: 1400 nM
13 | O=C(NCc1ccncc1)c1ccc(Oc2ccc(Cl)cc2)cc1 | 10000 | 1000 | 2400 | > 10000 | –
14 | O=C(NCc1ccncc1)c1ccc(Oc2ccc(F)cc2)cc1 | 2300 | 1000 | 2100 | > 10000 | –
15 | CCCc1c(C(=O)Nc2cc(C(=O)OC)ccc2C)cnn1-c1ccccc1 | 500 | – | 490 | > 10000 | –
16 | CCCc1c(C(=O)Nc2cc(S(=O)(=O)N(C)C)ccc2C)cnn1-c1ccccc1 | – | – | – | – | microsomal CLint [5]: 62 µL/min/mg; fraction unbound [6]: 0.023; hepatocyte CLint [7]: 42 µL/min/1e6 cells; fraction unbound [8]: 0.031; inhibition [12]: 30%; solubility thermodynamic [9]: 0.55 µM (≈ 0.235 µg/mL); Activity [13]: inactive
17 | CCCc1c(C(=O)Nc2cc(S(C)(=O)=O)ccc2C)cnn1-c1ccccc1 | 23000 | – | 190 | > 10000 | –
18 | CCCc1c(C(=O)Nc2cc(C#N)ccc2C)cnn1-c1ccccc1 | 890 | – | 15 | > 10000 | IC50 [4]: 210 nM
19 | CCCc1c(C(=O)Nc2cc(S(=O)(=O)N(C)C)ccc2C)cnn1-c1cccnc1 | > 30000 | – | 270 | > 10000 | microsomal CLint [5]: 143 µL/min/mg; fraction unbound [6]: 0.26; hepatocyte CLint [7]: 10 µL/min/1e6 cells; fraction unbound [8]: 0.24; logD [15]: 2.3; solubility thermodynamic [9]: 21 µM (≈ 8.98 µg/mL)
20 | CCCc1c(C(=O)Nc2cc(S(=O)(=O)N(C)C)ccc2C)cnn1Cc1ccccc1 | 6300 | – | 53 | > 10000 | –
